Data reported in US7326825B2, “Methods of ungulate nuclear transfer” (Roslin Institute (Edinburgh), priority 1995, dated 2008).

Assays:
[1] = tested on: enucleated oocytes fused to primary bovine fibroblasts; assay: Pronuclear formation in enucleated oocytes fused to primary bovine fibroblasts and subsequently activated; type: cell-based; design: percentage of activated oocytes containing 1 PN / percentage of activated oocytes containing 2 PN / percentage of activated oocytes containing 3 PN / percentage of activated oocytes containing 4 PN / percentage of activated oocytes containing >4 PN: concentration or dose not given beside the values
ovine oocytes = assay: Nuclei formation upon activation of reconstructed ovine oocytes matured in vivo; type: cell-based; conditions: donor cells introduced in the absence of activation
Method: Similar observations to those in Example 1 have also been made in ovine oocytes which have been matured in vivo. Freshly ovulated oocytes can be retrieved by flushing from the oviducts of superstimulated ewes 24 hours after prostaglandin treatment. The use of calcium magnesium free PBS/1.0% FCS as a flushing medium prevents oocyte activation. Oocytes can be enucleated in calcium free medium and donor cells introduced as above in the absence of activation. No organised spindle is observed, multiple nuclei are formed upon subsequent activation and this may be suppressed by nocodazole treatment.

[2] = nocodazole 1 hour prior to and 6 hours following activation, fused 24 hpm, activated 42 hpm, scored 12 hours post activation

COC(=O)Nc1nc2ccc(C(=O)c3cccs3)cc2[nH]1 [nocodazole]
formation of micronuclei ([1]; incubation of activated oocytes for 5 hours, 1 hour prior to and following the activation stimulus): prevents the formation of micronuclei | percentage of activated oocytes containing 1 PN [1, 2]: 100% | percentage of activated oocytes containing 2 PN [1, 2]: 0% | percentage of activated oocytes containing 3 PN [1, 2]: 0% | percentage of activated oocytes containing 4 PN [1, 2]: 0% | percentage of activated oocytes containing >4 PN [1, 2]: 0% | formation of multiple nuclei upon subsequent activation (ovine oocytes): suppressed
